Values after ≈ are worked out from the molar mass of the structure shown.
Assays:
Assay in all cases: MIC, CLSI broth microdilution
Assay type in all cases: cell-based
[1] = tested on: A. baumannii AABA1009 (Fluoroquinolone-resistant); conditions: for MIC AABA 1009: Table 2
Protocol: (§1) Minimum inhibitory concentrations (MIC) were determined by reference Clinical and Laboratory Standards Institute (CLSI) broth microdilution methods per M7-A7 [2006]. Quality control ranges utilizing E. coli ATCC 25922, P. aeruginosa ATCC 27853 and S. aureus ATCC 29213, and interpretive criteria for comparator agents were as published in CLSI M100-S17 [2007]. Briefly, serial two-fold dilutions of the test compounds were prepared at 2× concentration in Mueller Hinton Broth. The compound dilutions were mixed in 96-well assay plates in a 1:1 ratio with bacterial inoculum. The inoculum was prepared by suspension of a colony from an agar plate that was prepared the previous day. Bacteria were suspended in sterile saline and added to each assay plate to obtain a final concentration of 5×10^5 CFU/mL. The plates were incubated at 35° C. for 20 hours in ambient air.

[2] = tested on: A. baumannii AABA1065 (Fluoroquinolone-susceptible); conditions: for MIC AABA 1065: Table 2
Protocol: as §1

[3] = tested on: E. coli AECO001 (Fluoroquinolone susceptible, ATCC25922); conditions: Table 2, 35° C., 20 hours
Protocol: as §1

[4] = tested on: E. coli AECO066 (Fluoroquinolone-resistant); conditions: for MIC AECO 066: Table 2
Protocol: as §1

[5] = tested on: P. aeruginosa APAE001 (Fluoroquinolone-susceptible, ATCC27853); conditions: for MIC APAE 001: Table 2
Protocol: as §1

[6] = tested on: P. aeruginosa APAE054 (Fluoroquinolone-resistant); conditions: for MIC APAE 054: Table 2
Protocol: as §1

[7] = tested on: S. aureus ASAU001 (Fluoroquinolone-susceptible, ATCC29213); conditions: for MIC ASAU 001: Table 2
Protocol: as §1

[8] = tested on: S. aureus ASAU1031 (Fluoroquinolone-resistant); conditions: for MIC ASAU 1031: Table 2
Protocol: as §1

[9] = tested on: S. pneumoniae ASPN001 (Fluoroquinolone-susceptible, ATCC49619); conditions: for MIC ASPN 001: Table 2
Protocol: as §1

[10] = tested on: S. pneumoniae ASPN1027 (Fluoroquinolone-resistant); conditions: for MIC ASPN 1027: Table 2
Protocol: as §1

MIC AABA 1009 [1] | MIC AECO 001 [3] | MIC AECO 066 [4] | MIC APAE 054 [6] | MIC ASAU 1031 [8] | MIC ASPN 1027 [10] | MIC ([1]; Acinetobacter baumannii, Table 2, read-out: MIC AABA 1009) [µg/mL] | MIC ([2]; Acinetobacter baumannii, Table 2, read-out: MIC AABA 1065) [µg/mL] | MIC ([3]; Escherichia coli, read-out: MIC AECO 001) [µg/mL] | MIC ([4]; Escherichia coli, Table 2, read-out: MIC AECO 066) [µg/mL] | MIC ([5]; Pseudomonas aeruginosa, Table 2, read-out: MIC APAE 001) [µg/mL] | MIC ([6]; Pseudomonas aeruginosa, Table 2, read-out: MIC APAE 054) [µg/mL] | MIC ([7]; Staphylococcus aureus, Table 2, read-out: MIC ASAU 001) [µg/mL] | MIC ([8]; Staphylococcus aureus, Table 2, read-out: MIC ASAU 1031) [µg/mL] | MIC ([9]; Streptococcus pneumoniae, Table 2, read-out: MIC ASPN 001) [µg/mL] | MIC ([10]; Streptococcus pneumoniae, Table 2, read-out: MIC ASPN 1027) [µg/mL] | Structure (SMILES) | MIC AABA 1065 [2] | MIC APAE 001 [5] | MIC ASAU 001 [7] | MIC ASPN 001 [9]
C (MIC's of greater than 8.0 μg/mL = C) | A (MIC's of 1.0 μg/mL or less = A) | C (MIC's of greater than 8.0 μg/mL = C) | C (MIC's of greater than 8.0 μg/mL = C) | C (MIC's of greater than 8.0 μg/mL = C) | C (MIC's of greater than 8.0 μg/mL = C) | – | – | – | – | – | – | – | – | – | – | N[C@@H]1CCN2c3c(F)cc4c(=O)c(C(=O)O)cn(C5CC5)c4c3CNC[C@H]12.O=C(O)C(F)(F)F.O=C(O)C(F)(F)F [26/17, (3aR,4R)-4-Amino-13-cyclopropyl-8-fluoro-10-oxo-2,3,3a,4,5,6,10,13-octahydro-1H-pyrrolo[2′,1′:3,4][1,4]diazepino[5,6-h]quinoline-11-carboxylic acid bis(trifluoroacetate)] | B (MIC's of greater than 1.0 μg/mL to 8.0 μg/mL = B) | B (MIC's of greater than 1.0 μg/mL to 8.0 μg/mL = B) | B (MIC's of greater than 1.0 μg/mL to 8.0 μg/mL = B) | B (MIC's of greater than 1.0 μg/mL to 8.0 μg/mL = B)
C (MIC's of greater than 8.0 μg/mL = C) | A (MIC's of 1.0 μg/mL or less = A) | C (MIC's of greater than 8.0 μg/mL = C) | C (MIC's of greater than 8.0 μg/mL = C) | C (MIC's of greater than 8.0 μg/mL = C) | C (MIC's of greater than 8.0 μg/mL = C) | – | – | – | – | – | – | – | – | – | – | O=C(O)c1cn(C2CC2)c2c3c(c(F)cc2c1=O)N1CCCC1CN=C3 (centres unmarked) [12/4, 13-Cyclopropyl-8-fluoro-10-oxo-3a,4,5,6,10,13-hexahydro-3H-pyrrolo[2′,1′:3,4][1,4]diazepino[5,6-h]quinoline-11-carboxylic acid] | C (MIC's of greater than 8.0 μg/mL = C) | B (MIC's of greater than 1.0 μg/mL to 8.0 μg/mL = B) | A (MIC's of 1.0 μg/mL or less = A) | B (MIC's of greater than 1.0 μg/mL to 8.0 μg/mL = B)
– | – | – | – | – | – | > 8 | 1 to 8 (≈ 2.79 to 22.3 µM) | ≤ 1 | > 8 | > 8 | > 8 | ≤ 1 | > 8 | 1 to 8 (≈ 2.79 to 22.3 µM) | > 8 | O=C(O)c1cn(C2CC2)c2c3c(c(F)cc2c1=O)N1CCCC1CCO3 (centres unmarked) [32/1] | – | – | – | –
C (MIC's of greater than 8.0 μg/mL = C) | A (MIC's of 1.0 μg/mL or less = A) | C (MIC's of greater than 8.0 μg/mL = C) | C (MIC's of greater than 8.0 μg/mL = C) | C (MIC's of greater than 8.0 μg/mL = C) | C (MIC's of greater than 8.0 μg/mL = C) | – | – | – | – | – | – | – | – | – | – | N[C@H]1C[C@H]2CN=Cc3c(c(F)cc4c(=O)c(C(=O)O)cn(C5CC5)c34)N2C1.O=C(O)C(F)(F)F [5/10, (3aS,5S)-5-amino-13-cyclopropyl-8-fluoro-10-oxo-3a,4,5,6,10,13-hexahydro-3H-pyrrolo[2′,′:3,4][1,4]diazepino[5,6-h]quinoline-11-carboxylic acid trifluoroacetate] | B (MIC's of greater than 1.0 μg/mL to 8.0 μg/mL = B) | B (MIC's of greater than 1.0 μg/mL to 8.0 μg/mL = B) | B (MIC's of greater than 1.0 μg/mL to 8.0 μg/mL = B) | B (MIC's of greater than 1.0 μg/mL to 8.0 μg/mL = B)
C (MIC's of greater than 8.0 μg/mL = C) | C (MIC's of greater than 8.0 μg/mL = C) | C (MIC's of greater than 8.0 μg/mL = C) | C (MIC's of greater than 8.0 μg/mL = C) | C (MIC's of greater than 8.0 μg/mL = C) | C (MIC's of greater than 8.0 μg/mL = C) | – | – | – | – | – | – | – | – | – | – | O=C(O)c1cn(C2CC2)c2c3c(c(F)cc2c1=O)N1CCCC1CS(=O)(=O)C3 (centres unmarked) [8/12, 13-Cyclopropyl-8-fluoro-10-oxo-3a,4,5,6,10,13-hexahydro-1H,3H-pyrrolo[2′,1′:3,4][1,4]thiazepino[5,6-h]quinoline-11-carboxylic acid 2,2-dioxide] | C (MIC's of greater than 8.0 μg/mL = C) | C (MIC's of greater than 8.0 μg/mL = C) | B (MIC's of greater than 1.0 μg/mL to 8.0 μg/mL = B) | C (MIC's of greater than 8.0 μg/mL = C)

Reference: patent US20120058989A1, “ANTIBACTERIAL FLUOROQUINOLONE ANALOGS” (Achaogen, Inc., priority 2008, published 2012)
